Converted amounts (≈) assume the structure as drawn.
Key:
[1] = Oral kinetic assay in mice: plasma concentration of ACX after oral delivery of FCX or ACX-Ac; type: in vivo, mice Hsd: ICR (CD-1); conditions: for AUCt, area under the concentration-time curve from 0 to the time of the last quantifiable observation, of ACX / Cmax: ACX measured in plasma after the named compound, oral (intragastric), single 10 mg/kg, sunflower oil; for AUCt, area under the concentration-time curve from 0 to the time of the last quantifiable observation, of ACX: linear-log trapezoidal rule; for Cmax: noncompartmental analysis, read-out: Cmax, maximum observed plasma concentration of ACX
Method: Immunocompetent mice from the strain Hsd: ICR (CD-1) (females, 6-7 weeks old from ENVIGO), were housed under sterile conditions at a constant temperature of 20-22° C. and relative humidity (45-65%) under daily cycles of light/darkness (12 hours). Sterilized water and food were available ad libitum.
ACX-Ac was dissolved at 1 mg/mL in sunflower oil and sterilized by filtration. FCX was dissolved at 2 mg/mL in sunflower oil and sterilized by filtration. Animals were weighted before the assay to determine the appropriate dispensing volume at 5 mL/kg (FCX) or 10 ml/kg (ACX-Ac). Formulations were administered once, intragastrically, at 10 mg/kg. Blood was collected at different time points, as stated in Table 1. It was extracted either through the facial vein or by intracardiac puncture (end points), on recipients containing 5 μL of 0.5 M EDTA.
Blood samples were analyzed by HPLC-MS/MS following proprietary analytical methods and the concentration of ACX in each sample was determined. A non-compartmental pharmacokinetic analysis was carried out using individual plasma concentrations versus sampling times by means of the PKPlus® software version 2.0 (Simulations Plus, Lancaster, CA 93534, USA).

[2] = Solubility in different lipid vehicle formulations (HPLC assay of the filtered sample); type: physicochemical; conditions: about 25 mg compound in 1 mL
Method: About 25 mg of compound was weighted into a glass vial and 1 mL of the lipophilic solvent was added to the vial containing the compound. The vial was vortexed for 1 minute followed by sonication for 30 minutes. The resulting solution was visually observed for any undissolved particles. The sonicated sample was filtered through a 0.22 μm PTFE filter and 500 μL of this filtered sample was dissolved with 25 mL of a EtOH: hexane (80:20) solution (“dilution 1”). 1 mL of “dilution 1” was dissolved with 10 mL of ACN to obtain “dilution 2”. 1 mL of “dilution 2” was filtered through a 0.22 μm PTFE filter and directly used for assay by HPLC. The concentration was calculated by extrapolation from a calibration curve. 1.00 mg of standard compound was accurately weighted (precision scale) and diluted to 100 ppm in a volumetric flask.

[3] = DHA (fish oil), PUFA-enriched oil

administered compound detected in plasma samples ([1]; oral, 10 mg/kg in sunflower oil) | plasma levels of ACX in comparison to those obtained after FX administration ([1]; oral, 10 mg/kg in sunflower oil, FIG. 1 and Table 3) | Compound | AUCt, area under the concentration-time curve from 0 to the time of the last quantifiable observation, of ACX [1] | Cmax [1] | solubility [2, 3] | solubility ([2]; Labrafac Lipophile 1349) | solubility ([2]; Labrafac MC60) | solubility ([2]; Labrafil M 1944CS) | solubility ([2]; Labrafil M 2125) | solubility ([2]; Labrasol ALF) | solubility ([2]; Maisine) | solubility ([2]; Plurol Oleique) | solubility ([2]; Sunflower oil) | oral absorption of the administered compound ([1]; oral, oil formulation, 10 mg/kg)
not detected | substantially higher | CC(=O)O[C@H]1CC(C)(C)C(=C=C/C(C)=C/C=C/C(C)=C/C=C/C=C(C)/C=C/C=C(\C)C(=O)C[C@@]2(O)C(C)=CC(=O)CC2(C)C)[C@](C)(O)C1 [ACX-Ac, Amarouciaxanthin A acetate] | 80.59 µM·h | 9.35 µM | 18.3 mg/mL | 21.7 mg/mL | 21.0 mg/mL | 22.6 mg/mL | 23.0 mg/mL | 22.4 mg/mL | 22.9 mg/mL | 11.9 mg/mL | 19.9 mg/mL | –
– | – | CC1=CC(=O)CC(C)(C)[C@@]1(O)CC(=O)/C(C)=C/C=C/C(C)=C/C=C/C=C(C)/C=C/C=C(\C)C=C=C1C(C)(C)C[C@H](O)C[C@@]1(C)O [ACX, Amarouciaxanthin A] | – | – | 7.2 mg/mL (≈ 11.7 mM) | 19.0 mg/mL (≈ 30.9 mM) | 15.9 mg/mL (≈ 25.9 mM) | 19.9 mg/mL (≈ 32.4 mM) | 20.3 mg/mL (≈ 33 mM) | 22.4 mg/mL (≈ 36.4 mM) | 19.9 mg/mL (≈ 32.4 mM) | 16.7 mg/mL (≈ 27.2 mM) | 9.2 mg/mL (≈ 15 mM) | –
– | – | CC(=O)O[C@H]1CC(C)(C)C(=C=C/C(C)=C/C=C/C(C)=C/C=C/C=C(C)/C=C/C=C(\C)C(=O)C[C@@]23O[C@]2(C)C[C@@H](O)CC3(C)C)[C@](C)(O)C1 [FCX, fucoxanthin] | 51.19 µM·h | 2.87 µM | 4.1 mg/mL (≈ 6.22 mM) | 16.9 mg/mL (≈ 25.6 mM) | 20.4 mg/mL (≈ 31 mM) | 17.6 mg/mL (≈ 26.7 mM) | 23.0 mg/mL (≈ 34.9 mM) | 22.3 mg/mL (≈ 33.8 mM) | 23.0 mg/mL (≈ 34.9 mM) | 20.7 mg/mL (≈ 31.4 mM) | 5.0 mg/mL (≈ 7.59 mM) | negligible

From patent US20260263338A1, “COMPOSITIONS COMPRISING AMAROUCIAXANTHIN A ESTERS AND USES THEREOF” (GAT THERAPEUTICS, S.L., priority 2022, published 2026)
